Data on five compounds can be found in patent publication US11051515B2, “3-acyl-benzamides and their use as herbicides” (Bayer Aktiengesellschaft, priority 2017, dated 2021).

Assay [1] concerns ALOMY. Nature of the assay: Pre-emergence action against ALOMY. It counts as in vivo, Alopecurus myosuroides. To be noted: Alopecurus myosuroides, 504 h; dosage 320 g/ha; pre-emergence; scored visually after 3 weeks vs untreated controls; 100% = plants have died, 0% = like control plants; read-out: Pre-emergence action against ALOMY (herbicidal activity in percent). Put shortly:
(§1)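 Seeds sown in sandy loam in wood-fiber pots and covered with soil. Greenhouse growth; visual damage scored after 3 weeks versus untreated controls (100% = dead, 0% = like control).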

Assay [2] relates to AVEFA. Put plainly: Pre-emergence action against AVEFA. It counts as in vivo, Avena fatua. To be noted: Avena fatua, 504 h, dosage 320 g/ha, scored visually after 3 weeks vs untreated controls, read-out: Pre-emergence action against AVEFA (herbicidal activity). Put shortly:
as §1

The test system of the next assay is CYPES. Nature of the assay: Pre-emergence action against CYPES. It counts as in vivo, Cyperus esculentus. To be noted: Cyperus esculentus, 504 h; pre-emergence, dosage 320 g/ha, scored visually after 3 weeks vs untreated controls; read-out: Pre-emergence action against CYPES (herbicidal activity). Put shortly: as §1
Assay [3] concerns ECHCG. Put plainly: Pre-emergence action against ECHCG. The format is in vivo, Echinochloa crus-galli. As to conditions: Echinochloa crus-galli, 504 h; pre-emergence, dosage 320 g/ha, scored visually after 3 weeks vs untreated controls; read-out: Pre-emergence action against ECHCG (herbicidal activity). Put shortly:
as §1

The subject of the next assay is ABUTH. Put plainly: Pre-emergence action against ABUTH. The format is in vivo, Abutilon theophrasti. To be noted: Abutilon theophrasti, 504 h; pre-emergence, dosage 320 g/ha, scored visually after 3 weeks vs untreated controls; read-out: Pre-emergence action against ABUTH (herbicidal activity). Put shortly:
as §1

The test system of another assay is AMARE. Nature of the assay: Pre-emergence action against AMARE. The format is in vivo, Amaranthus retroflexus. As to conditions: Amaranthus retroflexus, 504 h; pre-emergence, dosage 320 g/ha, scored visually after 3 weeks vs untreated controls; read-out: Pre-emergence action against AMARE (herbicidal activity). Put shortly:
as §1

The test system of assay [4] is STEME. Put plainly: Pre-emergence action against STEME. It counts as in vivo, Stellaria media. To be noted: Stellaria media, 504 h; Dosage 320 g/ha, pre-emergence. Put shortly:
as §1

For assay [5], the system named is VIOTR. Put plainly: Pre-emergence action against VIOTR. The format is in vivo, Viola tricolor. To be noted: Viola tricolor, 504 h; Dosage 320 g/ha, pre-emergence. Put shortly:
as §1

For assay [6], the system named is VERPE. Nature of the assay: Pre-emergence action against VERPE. The format is in vivo, Veronica persica. To be noted: Veronica persica, 504 h; Dosage 320 g/ha, pre-emergence. Put shortly:
as §1

Assay [7] has as its system ALOMY. Nature of the assay: Post-emergence action against ALOMY. The format is in vivo, Alopecurus myosuroides. As to conditions: Alopecurus myosuroides, 504 h; Dosage 80 g/ha, post-emergence. Put shortly:
(§2)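 Post-emergence foliar spray on greenhouse plants at the one-leaf stage, using wettable-powder or emulsion-concentrate formulations in water (600 to […], plus 0.2% wetting agent). Damage scored by eye roughly 3 weeks later against untreated plants: 0% = like control, 100% = dead.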

The test system of assay [8] is AVEFA. Put plainly: Post-emergence action against AVEFA. It counts as in vivo, Avena fatua. To be noted: Avena fatua, 504 h; post-emergence, dosage 80 g/ha, visual assessment about 3 weeks after treatment vs untreated controls; read-out: Post-emergence action against AVEFA (herbicidal action in percent). Put shortly: as §2
The subject of assay [9] is ECHCG. Nature of the assay: Post-emergence action against ECHCG. The format is in vivo, Echinochloa crus-galli. To be noted: Echinochloa crus-galli, 504 h; post-emergence, dosage 80 g/ha, visual assessment about 3 weeks after treatment vs untreated controls; read-out: Post-emergence action against ECHCG (herbicidal action in percent). Put shortly:
as §2

In another assay the test system is SETVI. Nature of the assay: Post-emergence action against SETVI. It counts as in vivo, Setaria viridis. To be noted: Setaria viridis, 504 h; post-emergence, dosage 80 g/ha, visual assessment about 3 weeks after treatment vs untreated controls; read-out: Post-emergence action against SETVI (herbicidal action in percent). Put shortly:
as §2

The subject of a further assay is MATIN. Put plainly: Post-emergence action against MATIN. The format is in vivo, Matricaria inodora. As to conditions: Tripleurospermum inodorum, 504 h; post-emergence, dosage 80 g/ha, visual assessment about 3 weeks after treatment vs untreated controls; read-out: Post-emergence action against MATIN (herbicidal action in percent). Put shortly:
as §2

The test system of the next assay is PHBPU. Put plainly: Post-emergence action against PHBPU. It counts as in vivo, Pharbitis purpurea. To be noted: Ipomoea purpurea, 504 h; post-emergence, dosage 80 g/ha. Put shortly: as §2
The subject of the next assay is POLCO. Put plainly: Post-emergence action against POLCO. As to conditions: Fallopia convolvulus, 504 h; post-emergence, dosage 80 g/ha. The format is in vivo, Polygonum convolvulus. Put shortly: as §2
For assay [10], the system named is STEME. Nature of the assay: Post-emergence action against STEME. The format is in vivo, Stellaria media. As to conditions: Stellaria media, 504 h; post-emergence, dosage 80 g/ha. Put shortly:
as §2

Assay [11] has as its system VIOTR. Nature of the assay: Post-emergence action against VIOTR. The format is in vivo, Viola tricolor. As to conditions: Viola tricolor, 504 h; post-emergence, dosage 80 g/ha. Put shortly:
as §2

Assay [12] relates to VERPE. Nature of the assay: Post-emergence action against VERPE. To be noted: Veronica persica, 504 h, dosage 80 g/ha. The format is in vivo, Veronica persica. Put shortly: as §2

`COc1c(C(=O)Nc2nnnn2C)ccc(C(F)(F)F)c1C(=O)C1CC1` [1-50]: the pest or weed control at 320 g/ha in the assay on ALOMY [1], with AVEFA [2], in the assay with CYPES, in the assay with ECHCG [3], in the assay with ABUTH and in the assay with AMARE was 100% in each case. Further, the pest or weed control at 320 g/ha in the assay with STEME [4], with VIOTR [5] and in the assay with VERPE [6] was 100% each time. The pest or weed control at 80 g/ha in the assay on ALOMY [7] was 80%; in the assay on AVEFA [8], 100%; with ECHCG [9] it was 90%; in the assay with SETVI it was 100%; in the assay on MATIN, 100%; in the assay on PHBPU it was 100%. Also, the pest or weed control at 80 g/ha in the assay with POLCO, in the assay on STEME [10], in the assay on VIOTR [11] and with VERPE [12] was 100% each time.
In the case of `CSc1c(C(=O)Nc2nnnn2C)ccc(C(F)(F)F)c1C(=O)C1CC1` [1-60], the pest or weed control at 320 g/ha with ALOMY [1], in the assay with AVEFA [2], in the assay on CYPES, with ECHCG [3], in the assay with ABUTH and in the assay on AMARE was 100% throughout. Moreover, the pest or weed control at 320 g/ha in the assay on STEME [4], with VIOTR [5] and in the assay with VERPE [6] was 100% each time. Further, the pest or weed control at 80 g/ha is 100% in the assay on ALOMY [7]; 100% in the assay with AVEFA [8]; 100% in the assay with ECHCG [9]; 100% in the assay with SETVI; 100% in the assay with MATIN; 90% in the assay with PHBPU. Besides, the pest or weed control at 80 g/ha in the assay with POLCO was 100%; with STEME [10] it was 100%; in the assay with VIOTR [11], 90%; in the assay on VERPE [12] it was 100%.
`CSc1c(C(=O)Nc2nnnn2C)ccc(C(F)F)c1C(=O)C1CC1` [1-67]: the pest or weed control at 320 g/ha is 100% in the assay on ALOMY [1]; 80% in the assay with AVEFA [2]; 90% with CYPES; 100% in the assay with ECHCG [3]; 100% with ABUTH; 100% in the assay on AMARE. Further, the pest or weed control at 320 g/ha in the assay with STEME [4], in the assay on VIOTR [5] and with VERPE [6] was 100% in each case. Further, the pest or weed control at 80 g/ha in the assay on ALOMY [7] was 100%; in the assay with AVEFA [8], 100%; in the assay on ECHCG [9], 100%; in the assay on SETVI it was 100%; in the assay with MATIN, 100%; in the assay with PHBPU, 80%. Besides, the pest or weed control at 80 g/ha in the assay with POLCO, in the assay on STEME [10], with VIOTR [11] and in the assay on VERPE [12] was 100% throughout.
As for `CC(=O)c1c(C(F)F)ccc(C(=O)Nc2nnnn2C)c1Cl` [1-164], the pest or weed control at 320 g/ha in the assay on ALOMY [1], in the assay on AVEFA [2], in the assay on CYPES, with ECHCG [3], in the assay with ABUTH and in the assay on AMARE was 100% each time. For the same compound, the pest or weed control at 320 g/ha in the assay with STEME [4], in the assay with VIOTR [5] and with VERPE [6] was 100% throughout. Also, the pest or weed control at 80 g/ha amounted to 90% in the assay with ALOMY [7]; 80% in the assay on AVEFA [8]; 100% in the assay with ECHCG [9]; 90% in the assay on SETVI; 100% with MATIN; 90% with PHBPU. Moreover, the pest or weed control at 80 g/ha amounted to 90% in the assay with POLCO, 90% in the assay on STEME [10], 100% in the assay on VIOTR [11] and 100% in the assay with VERPE [12].
Regarding `Cn1nnnc1NC(=O)c1ccc(C(F)(F)F)c(C(=O)C2CC2)c1Cl` [1-141], the pest or weed control at 320 g/ha in the assay with ALOMY [1], with AVEFA [2], in the assay with CYPES, with ECHCG [3], in the assay with ABUTH and with AMARE was 100% each time. Besides, the pest or weed control at 320 g/ha with STEME [4], in the assay with VIOTR [5] and in the assay on VERPE [6] was 100% throughout. Besides, the pest or weed control at 80 g/ha was found to be 100% in the assay on ALOMY [7]; 100% with AVEFA [8]; 100% in the assay on ECHCG [9]; 100% with SETVI; 90% in the assay with MATIN; 100% with PHBPU. The pest or weed control at 80 g/ha in the assay with POLCO, in the assay with STEME [10], in the assay with VIOTR [11] and with VERPE [12] was 100% each time.
